From US8765730B2 (Hoffmann-La Roche Inc, priority 2010, dated 2014) come the findings set out here.

The structures appear in SMILES notation. Read-outs that look alike come from different tables or passages of the source.

For the test, the target named is T1, human GPBAR1 receptor (Homo sapiens, UniProt Q8TDU6).
T1 construct: expressed in transfected cells
T1 sequence (Q8TDU6 1-330): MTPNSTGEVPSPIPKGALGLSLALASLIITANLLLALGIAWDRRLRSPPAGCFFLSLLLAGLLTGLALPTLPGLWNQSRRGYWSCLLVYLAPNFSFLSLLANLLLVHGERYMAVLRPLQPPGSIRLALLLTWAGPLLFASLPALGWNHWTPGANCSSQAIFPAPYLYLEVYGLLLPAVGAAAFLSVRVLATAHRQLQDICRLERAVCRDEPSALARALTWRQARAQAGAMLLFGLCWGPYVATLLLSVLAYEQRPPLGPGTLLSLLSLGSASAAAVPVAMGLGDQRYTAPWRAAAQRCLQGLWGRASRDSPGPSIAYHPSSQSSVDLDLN
The experiment in a line: functional cAMP assay in CHO-dhfr(minus) cells expressing human GPBAR1 receptors. Format: cell-based. The note with it: 30 min at 30° C. Put shortly:
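Agonist cAMP read-out: stable GPBAR1 CHO-dhfr− clone, 30 min compound exposure at 30° C following 30 min IBMX (1 mM) preincubation in Krebs Ringer bicarbonate. Time-resolved energy-transfer detection gives EC50; parental CHO cells serve as counter-screen.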

Where [1] appears, read: human EC50, functional cAMP assay.
Setting [2] is: functional cAMP assay, read-out: human EC50.

For the compound `Cc1cc(Cl)ccc1C(C/C(=N\O)c1ccc(=O)n(C)c1)c1ccc(S(C)(=O)=O)cc1` (single isomer, unassigned; (-)) [Example 333, (−)-(E)-5-(3-(4-Chloro-2-methylphenyl)-1-(hydroxyimino)-3-(4-(methylsulfonyl)phenyl)-propyl)-1-methylpyridin-2(1H)-one], under setting [1], the midpoint of the response, the EC50, lay at 73 nM.

With `O/N=C(\CC(c1ccccc1)c1ccc(Br)cc1)c1ccncc1` (stereo not drawn) [Example 5, (E)-3-(4-Bromo-phenyl)-3-phenyl-1-pyridin-4-yl-propan-1-one oxime], under setting [2], the EC50 was 19 nM.

In the case of `O/N=C(\CC(c1ccccc1)c1cccc(Br)c1)c1ccncc1` (stereo not drawn) [Example 12, (E)-3-(3-Bromo-phenyl)-3-phenyl-1-pyridin-4-yl-propan-1-one oxime], the midpoint of the response under setting [1], the EC50, lay at 92 nM.

As for `O/N=C(\CC(c1ccccc1)c1ccccc1)c1ccncc1` [Example 14, (E)-3,3-Diphenyl-1-pyridin-4-yl-propan-1-one oxime], the response under setting [1] was half-maximal at 52 nM (EC50).

With `[O-][n+]1ccc(/C(CC(c2ccccc2)c2ccc(Br)cc2)=N/O)cc1` (stereo not drawn) [Example 15, (E)-3-(4-Bromo-phenyl)-1-(1-oxy-pyridin-4-yl)-3-phenyl-propan-1-one oxime], a half-maximal response under setting [1] (EC50) required 206 nM.

Consider `O/N=C(\CC(c1ccccc1)c1ccc(C2CC2)cc1)c1ccncc1` (stereo not drawn) [Example 16, (E)-3-(4-Cyclopropyl-phenyl)-3-phenyl-1-pyridin-4-yl-propan-1-one oxime], for which the midpoint of the response under setting [1], the EC50, lay at 178 nM.

Consider `CS(=O)(=O)c1cccc(-c2ccc(C(C/C(=N\O)c3ccncc3)c3ccccc3)cc2)c1` (stereo not drawn) [Example 19, (E)-3-(3′-Methanesulfonyl-biphenyl-4-yl)-3-phenyl-1-pyridin-4-yl-propan-1-one oxime], for which the half-maximal effective concentration (EC50) under setting [2] stood at 355 nM.

Consider `CS(=O)(=O)c1ccc(-c2ccc(C(C/C(=N\O)c3ccncc3)c3ccccc3)cc2)cc1` (stereo not drawn) [Example 20, (E)-3-(4′-Methanesulfonyl-biphenyl-4-yl)-3-phenyl-1-pyridin-4-yl-propan-1-one oxime], for which, under setting [1], the EC50 was found to be 66 nM.

As to `CNS(=O)(=O)c1ccc(-c2ccc(C(C/C(=N\O)c3ccncc3)c3ccccc3)cc2)cc1` (stereo not drawn) [Example 21, 4′-{3-[(E)-Hydroxyimino]-1-phenyl-3-pyridin-4-yl-propyl}-biphenyl-4-sulfonic acid methylamide], the EC50 under setting [1] stood at 303 nM.

Turning to `O/N=C(\CC(c1ccccc1)c1ccc(-c2cncnc2)cc1)c1ccncc1` (stereo not drawn) [Example 22, (E)-3-Phenyl-1-pyridin-4-yl-3-(4-pyrimidin-5-yl-phenyl)-propan-1-one oxime], the EC50 under setting [1] worked out at 33 nM.

Take `CS(=O)(=O)c1cccc(-c2cccc(C(C/C(=N\O)c3ccncc3)c3ccccc3)c2)c1` (stereo not drawn) [Example 23, (E)-3-(3′-Methanesulfonyl-biphenyl-3-yl)-3-phenyl-1-pyridin-4-yl-propan-1-one oxime]: the EC50 under setting [1] amounted to 492 nM.

The compound `CS(=O)(=O)c1ccc(-c2cccc(C(C/C(=N\O)c3ccncc3)c3ccccc3)c2)cc1` (stereo not drawn) [Example 24, (E)-3-(4′-Methanesulfonyl-biphenyl-3-yl)-3-phenyl-1-pyridin-4-yl-propan-1-one oxime] came in with an EC50 under setting [1] of 2190 nM.

For `Cc1ccc(-c2ccc(C(C/C(=N\O)c3ccncc3)c3ccccc3)cc2)cn1` (stereo not drawn) [Example 25, (E)-3-[4-(6-Methyl-pyridin-3-yl)-phenyl]-3-phenyl-1-pyridin-4-yl-propan-1-one oxime], the midpoint of the response under setting [1], the EC50, lay at 356 nM.

As to `CCS(=O)(=O)c1ccc(-c2ccc(C(C/C(=N\O)c3ccncc3)c3ccccc3)cc2)cc1` (stereo not drawn) [Example 26, (E)-3-(4′-Ethanesulfonyl-biphenyl-4-yl)-3-phenyl-1-pyridin-4-yl-propan-1-one oxime], a half-maximal response under setting [1] (EC50) required 108 nM.

The compound `OCc1ccc(-c2ccc(C(C/C(=N\O)c3ccncc3)c3ccccc3)cc2)cc1` (stereo not drawn) [Example 27, (E)-3-(4′-Hydroxymethyl-biphenyl-4-yl)-3-phenyl-1-pyridin-4-yl-propan-1-one oxime] had an EC50 under setting [1] of 92 nM.
